Measured values from PubChem BioAssay AID248 (DTP/NCI, 2004).
Inconclusive results and toxic doses are left out. Cut-off read from the data, not from the text of the source: active = T/C of 150% or more; inactive = T/C below 125%.

Tested on: L1210 leukemia ip in BDF1 mice, survival T/C
Experiment: NCI In Vivo Anticancer Drug Screen. Data for tumor model L1210 Leukemia (intraperitoneal) in B6D2F1 (BDF1) mice
Details: endpoint: mean survival time, higher = longer survival
How it was run: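 Value reflects the ratio of survival in compound-treated mice to survival in vehicle-treated controls, with both groups carrying the same transplanted tumor.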

[1] = dose: 100.0 mg/kg/injection, schedule: Q01DX009 (ip), vehicle: saline with Tween-80
[2] = dose: 100.0 mg/kg/injection, schedule: Q01DX001 (ip), vehicle: saline
[3] = dose: 200.0 mg/kg/injection, schedule: Q01DX001 (ip), vehicle: saline
[4] = dose: 400.0 mg/kg/injection, schedule: Q01DX001 (ip), vehicle: saline

Measured: T/C

Nc1nc(N)c2cc(NCc3ccc(F)cc3)ccc2n1
inactive: dose: 3.13 mg/kg/injection, schedule: Q01DX009 (ip), vehicle: saline with Tween-80 90 % of control | dose: 6.25 mg/kg/injection, schedule: Q01DX009 (ip), vehicle: saline with Tween-80 92 % of control | dose: 6.25 mg/kg/injection, schedule: Q04DX003 (ip), vehicle: saline with Tween-80 100 % of control | dose: 12.5 mg/kg/injection, schedule: Q01DX009 (ip), vehicle: saline with Tween-80 97 % of control

O=[N+]([O-])c1ccc(CSCc2ccc(Cl)cc2)cc1
inactive: dose: 100.0 mg/kg/injection, schedule: Q01DX001 (ip), vehicle: carboxymethylcellulose (CMC) 97 % of control | dose: 200.0 mg/kg/injection, schedule: Q01DX001 (ip), vehicle: carboxymethylcellulose (CMC) 97 % of control | dose: 400.0 mg/kg/injection, schedule: Q01DX001 (ip), vehicle: carboxymethylcellulose (CMC) 94 % of control

Nc1nc(N)c(-c2ccc(Cl)cc2)c(CNc2ccc([N+](=O)[O-])cc2)n1
inactive: dose: 100.0 mg/kg/injection, schedule: Q04DX003 (ip), vehicle: saline with Tween-80 109 % of control | dose: 200.0 mg/kg/injection, schedule: Q04DX003 (ip), vehicle: saline with Tween-80 95 % of control | dose: 400.0 mg/kg/injection, schedule: Q04DX003 (ip), vehicle: saline with Tween-80 95 % of control

CCOC(=O)c1c(Cl)c(Cl)c(Cl)c(Cl)c1C(=O)O
inactive: dose: 100.0 mg/kg/injection, schedule: Q01DX001 (ip), vehicle: saline with Tween-80 95 % of control | [1] 96 % of control | dose: 200.0 mg/kg/injection, schedule: Q01DX001 (ip), vehicle: saline with Tween-80 97 % of control | dose: 200.0 mg/kg/injection, schedule: Q01DX009 (ip), vehicle: saline with Tween-80 102 % of control | dose: 400.0 mg/kg/injection, schedule: Q01DX001 (ip), vehicle: saline with Tween-80 115 % of control

Cc1ccn2c(=O)cc(O)nc2c1
inactive: dose: 50.0 mg/kg/injection, schedule: Q01DX001 (ip), vehicle: saline 101 % of control | [2] 98 % of control | [3] 92 % of control | [4] 98 % of control

O=C(CNC(=O)Nc1nccs1)N/N=C/c1ccc(Cl)cc1
inactive: dose: 50.0 mg/kg/injection, schedule: Q01DX009 (ip), vehicle: saline with Tween-80 106 % of control | [1] 89 % of control

COc1ncccn1
inactive: dose: 75.0 mg/kg/injection, schedule: Q01DX009 (ip), vehicle: saline 93 % of control

Cc1cccc(N2C(=O)C3C(C2=O)C2(Cl)C(Cl)=C(Cl)C3(Cl)C2(Cl)Cl)c1C (stereo not given)
inactive: dose: 3.0 mg/kg/injection, schedule: Q01DX009 (ip), vehicle: Klucel (hydroxypropylcellulose) (HPC) 96 % of control | dose: 6.0 mg/kg/injection, schedule: Q01DX009 (ip), vehicle: Klucel (hydroxypropylcellulose) (HPC) 102 % of control | dose: 12.5 mg/kg/injection, schedule: Q01DX009 (ip), vehicle: Klucel (hydroxypropylcellulose) (HPC) 111 % of control | dose: 25.0 mg/kg/injection, schedule: Q01DX009 (ip), vehicle: Klucel (hydroxypropylcellulose) (HPC) 107 % of control | dose: 50.0 mg/kg/injection, schedule: Q01DX009 (ip), vehicle: Klucel (hydroxypropylcellulose) (HPC) 103 % of control

Cc1c(/C=N\Nc2ccccc2)[nH]c(=O)[nH]c1=O
inactive: [2] 92 % of control | [3] 92 % of control | [4] 86 % of control

CC(=O)OCC1OC(Sc2ncc3cnccn23)C(OC(C)=O)C(OC(C)=O)C1OC(C)=O (stereo not given)
inactive: dose: 100.0 mg/kg/injection, schedule: Q01DX005 (ip), vehicle: saline 88 % of control | dose: 200.0 mg/kg/injection, schedule: Q01DX005 (ip), vehicle: saline 93 % of control

CC(=O)Oc1ccc(N)cc1OC(C)=O
inactive: dose: 150.0 mg/kg/injection, schedule: Q01DX001 (ip), vehicle: steriod suspending solution 95 % of control

CCC[CH2][Ge]([CH2]CCC)[CH2]CCC.CCC[CH2][Ge]([CH3])[CH2]CCC
inactive: dose: 100.0 mg/kg/injection, schedule: Q04DX002 (ip), vehicle: saline with Tween-80 93 % of control | dose: 200.0 mg/kg/injection, schedule: Q04DX002 (ip), vehicle: saline with Tween-80 89 % of control | dose: 400.0 mg/kg/injection, schedule: Q04DX002 (ip), vehicle: saline with Tween-80 93 % of control

CCOC(=O)N/N=C/c1ccc(O)cc1
inactive: dose: 100.0 mg/kg/injection, schedule: Q04DX002 (ip), vehicle: Klucel (hydroxypropylcellulose) (HPC) 91 % of control | dose: 200.0 mg/kg/injection, schedule: Q04DX002 (ip), vehicle: Klucel (hydroxypropylcellulose) (HPC) 102 % of control | dose: 400.0 mg/kg/injection, schedule: Q04DX002 (ip), vehicle: Klucel (hydroxypropylcellulose) (HPC) 91 % of control

CCOC(=O)Oc1ccc(OC)cc1
inactive: dose: 100.0 mg/kg/injection, schedule: Q01DX009 (ip), vehicle: Klucel (hydroxypropylcellulose) (HPC) 111 % of control | dose: 100.0 mg/kg/injection, schedule: Q04DX003 (ip), vehicle: saline 98 % of control | dose: 200.0 mg/kg/injection, schedule: Q01DX009 (ip), vehicle: Klucel (hydroxypropylcellulose) (HPC) 96 % of control | dose: 200.0 mg/kg/injection, schedule: Q04DX003 (ip), vehicle: saline 112 % of control | dose: 400.0 mg/kg/injection, schedule: Q01DX009 (ip), vehicle: Klucel (hydroxypropylcellulose) (HPC) 96 % of control | dose: 400.0 mg/kg/injection, schedule: Q04DX003 (ip), vehicle: saline 124 % of control
